Measured values: US20040019095A1, “N, N'-dimethylated N-confused porphyrins” (priority 2002, published 2004)

Test: Singlet oxygen test with DPBF (decay of DPBF absorption at 418 nm on irradiation)
Assay type: physicochemical
Details: solution of DPBF and porphyrin salt irradiated with halogen lamp, filter ~700 nm; b88: four 20 seconds intervals
Source text: Alternatively, the ability to generate singlet oxygen may be tested as follows. DPBF (1,3-diphenylisobenzofuran)^8 is used to determine the ability of N,N′-dimethylated N-confused porphyrin salts to generate singlet oxygen. DPBF reacts quickly with singlet oxygen and its absorption decay around 418 nm can be easily monitored. […] A solution containing DPBF and N,N′-dimethylated N-confused porphyrin salts (e.g. compound 9 in FIG. 3) was irradiated with a halogen lamp using a filter (˜700 nm), and monitored by UV-vis spectroscopy at 418 nm.
Pyrrole (Acros) was distilled from CaH2 before use. The silica gel was 230-400 mesh Silicycle). Activity III basic alumina was obtained by adding 6% water to activity I Brockman basic alumina, 60-325 mesh (Fisher). All other materials and solvents were used as received. The NMR spectra were recorded on a Bruker WH-400 or a Bruker AV-400 in the solvents indicated and were referenced to residual solvent peaks. Elemental analyses were performed on a Carlo Erba Elemental Analyzer1108. The UV-vis spectra were measured on a Cary 50. Mass spectra were determined on a KRATOS Concept IIHQ hybrid mass spectrometer. Irradiations were carried with a 250 W Osram HLX 64655 […] in an Oriel lamp housing (model 66184). The light output passed through a glass filter: P70-700-S-Corion. […]

N,N′-Dimethylated 2-aza-5,10,15,20-tetra(p-tolyl)-21-carba-porphyrin.HI [compound 9]
decay of UV-vis signal at 418 nm (singlet oxygen generation): Substantial decay
